Data: PMC11306024, “Novel metabolite madeirone and neomarinone extracted from Streptomyces aculeoletus as marine antibiofilm and antifouling agents” (Frontiers in Chemistry, 2024)
Read-outs that look alike come from different tables or passages of the source.

Tests used:
M. hydrocarbonoclasticus [1] = test: Antibiofilm activity (inhibition of biofilm formation); assay type: cell-based, Marinobacter hydrocarbonoclasticus DSM 8798; settings: 0.16 µg/mL, 24 h, positive control
Experimental: (§1) To assess antimicrofouling activity, we selected five marine bacterial species as models: Marinobacter hydrocarbonoclasticus DSM 8798 (ATCC 49840), C. marina DSM 4741, Phaeobacter inhibens DSM 17,395, Pseusooceanicola batsensis DSM 15,984, and Micrococcus luteus DSM 20030 (ATCC 4698) ([Michael et al., 2016]). These strains, sourced from DSMZ (Leibniz Institute DSMZ—German Collection of Microorganisms and Cell Cultures), were cultured in liquid marine broth (Carl Roth GmbH, Karlsruhe, Germany) with agitation at 180 rpm or on agar-supplemented marine broth. Incubation temperatures were set at 28°C for M. hydrocarbonoclasticus and Cobetia marina, 30°C for P. inhibens and P. batsensis, while M. luteus was maintained at 37°C in Brain Heart Infusion broth (BHI, Becton Dickinson, GmbH, Heidelberg, Germany) under similar agitation conditions.
(§2) The antibiofilm potential of compounds (1) and (2) against the five marine bacterial species was investigated in 96-well polystyrene flat-bottom microplates (Nunclon Delta Surface, Thermo Scientific, Roskilde, Denmark), as described previously ([Bauermeister et al., 2019]; [Pereira et al., 2020]). In the initial screening, bacterial overnight cultures were diluted to an OD600 of 0.2 and incubated statically at appropriate temperatures. The cultures were tested at 31.25, 15.60, 7.81, 3.91, 1.95, 0.98 μg/mL concentrations (2-fold serial dilutions) of compounds (1) and (2), solubilized in DMSO, or left untreated. After 24 h (M. hydrocarbonoclasticus, C. marina) or 48 h (P. batsensis, P. inhibens, M. luteus) incubation, OD600 was measured. The planktonic cells and media were discarded, and the wells were washed twice with deionized water. Biofilms were fixed, stained, and quantified by measuring the OD600 after solubilization with acetic acid. Biofilm inhibition percentages were calculated relative to untreated bacterial species, using DMSO as a negative control and CuSO4 (0.16 μg/mL), as a positive control. All assays were performed in triplicate, and the results represent the mean and standard error of the mean (SEM). Statistical analysis was conducted using GraphPad Prism 8.0.2, employing one-way ANOVA followed by Dunnett’s multiple comparisons test against the negative control.

P. inhibens [2] = test: as above; assay type: cell-based, Phaeobacter inhibens DSM 17395; settings: 0.16 µg/mL, 48 h, positive control
Experimental: as §1, §2

M. luteus [3] = test: as above; assay type: cell-based, Micrococcus luteus DSM 20030; settings: 0.16 µg/mL, 48 h, positive control
Experimental: as §1, §2

C. marina [4] = test: as above; assay type: cell-based, Cobetia marina DSM 4741; settings: 0.16 µg/mL, 24 h, positive control
Experimental: as §1, §2

C. marina [5] = test: Antibacterial activity (growth inhibition, OD600); assay type: cell-based, Cobetia marina DSM 4741; settings: 0.16 µg/mL, 24 h, positive control
Experimental: as §1
(§3) The antibacterial efficacy of compounds (1) and (2) was assessed in 96-well polystyrene flat-bottom microplates (Nunclon Delta Surface, Thermo Scientific, Roskilde, Denmark) following established procedures ([Bauermeister et al., 2019]). In the initial screening, bacterial overnight cultures were diluted to an optical density (OD600nm) of 0.2 and incubated statically at appropriate temperatures. The cultures were treated with the following final concentrations per well: 31.25, 15.60, 7.81, 3.91, 1.95, and 0.98 μg/mL (2-fold serial dilutions) of the compounds, solubilized in DMSO, or left untreated. After 24 h (M. hydrocarbonoclasticus, C. marina) or 48 h (P. batsensis, P. inhibens, M. luteus) incubation, optical density at 600 nm (OD600) was measured using a Molecular Devices Spectra Max 190. Growth inhibition percentages were calculated relatively to untreated bacterial species, using DMSO as a negative control. CuSO4 (0.16 μg/mL), a recognized antifouling agent, was used as positive control. All assays were conducted in triplicate, and the results represent the mean and standard error of the mean (SEM). Statistical analysis was carried out using GraphPad Prism 8.0.2 (San Diego, CA, United States), employing one-way ANOVA followed by Dunnett’s multiple comparisons test against the negative control.

P. inhibens [6] = test: Antibacterial activity (growth inhibition, OD600); assay type: cell-based, Phaeobacter inhibens DSM 17395; settings: 0.16 µg/mL, 48 h, positive control
Experimental: as §1, §3

M. hydrocarbonoclasticus [7] = test: Antibacterial activity (growth inhibition, OD600); assay type: cell-based, Marinobacter hydrocarbonoclasticus DSM 8798; settings: 0.16 µg/mL, 24 h, positive control
Experimental: as §1, §3

M. luteus [8] = test: Antibacterial activity (growth inhibition, OD600); assay type: cell-based, Micrococcus luteus DSM 20030; settings: 0.16 µg/mL, 48 h, positive control
Experimental: as §1, §3

P. batsensis [9] = test: Antibiofilm activity (inhibition of biofilm formation); assay type: cell-based, Pseudo-oceanicola batsensis DSM 15984; settings: 0.16 µg/mL, 48 h, positive control
Experimental: as §1, §2

P. batsensis [10] = test: Antibacterial activity (growth inhibition, OD600); assay type: cell-based, Pseudo-oceanicola batsensis DSM 15984; settings: 0.16 µg/mL, 48 h, positive control
Experimental: as §1, §3

Aliivibrio fischeri = test: Inhibition of bioluminescence (ISO 11348-3 micro adaptation); assay type: cell-based; settings: 100 µg/mL
Experimental: The in vivo evaluation of compounds (1) and (2) for acute toxicity was performed towards marine bacterium Aliivibrio fischeri, and planktonic crustacean Daphnia magna. The chronic ecotoxicity tests were evaluated using algae Pseudokirchneriella subcapitata and Phaeodactylum tricornutum.
The inhibition of bioluminescence of the marine bacterium A. fischeri, were studied following a micro adaptation of the standard procedure ISO 11348-3 (“Water Quality-Determination of the inhibitory effect of water samples on the light emission of Vibrio fischeri - Luminescent bacteria test–using freeze-dried bacteria method”). Briefly, frozen lyophilized bacterial cells (Abraxis, Warminster, PA, United States) were reconstituted in Reconstitution Solution, supplied by the manufacturer of the Abratox kit (Abraxis). Madeirone (1) and neomarinone (2) were dissolved in DMSO and tested at the concentrations of 100, 50, 25, 12.5, 6.25, 3.13, and 1.56 μg/mL. The emitted luminescence was measured using a luminometer at time 0 min and at different exposure times (5, 15 and 30 min) and the percentage of inhibition of bioluminescence was determined. Each experiment was performed in duplicate and the results of three independent experiments with <10% SD are presented. Phenol was used as a positive control.

Daphnia magna [11] = settings: ref Tišler and Zagorc-končan, 2003; cited from earlier work
[12] = system: Alga Scenedesmus quadricauda; settings: cited from earlier work
Fish Orcorhynchus mykiss = settings: ref Tišler and Zagorc-končan, 2003; cited from earlier work
Daphnia magna [13] = settings: cited from earlier work
Oral rat = settings: from reported data; ref Tišler and Zagorc-končan, 2003; cited from earlier work
Oral rat/rabit = system: Oral rat/rabit; parameters: method as in Tišler and Zagorc-končan, 2003; settings: ref Tišler and Zagorc-končan, 2003; cited from earlier work
M. edulis = system: M. edulis; parameters: method as in Davies et al., 1997; settings: against M. edulis; ref Davies et al., 1997; cited from earlier work

O=S(=O)([O-])[O-].[Cu+2] [CuSO4, reference compound]
Biofilm inhibition (%) M. hydrocarbonoclasticus (M. hydrocarbonoclasticus [1]): no observable inhibition and N.I. | Biofilm inhibition (%) P. inhibens (P. inhibens [2]): 12.9 ± 6.4% | Biofilm inhibition (%) M. luteus (M. luteus [3]): no observable inhibition and N.I. | Biofilm inhibition (%) C. marina (C. marina [4]): no observable inhibition and N.I. | Growth inhibition (%) C. marina (C. marina [5]): No inhibition and N.I. | Growth inhibition (%) P. inhibens (P. inhibens [6]): 66.2 ± 5.6 % | Growth inhibition (%) M. hydrocarbonoclasticus (M. hydrocarbonoclasticus [7]): 35.8 ± 0.8 % | Growth inhibition (%) M. luteus (M. luteus [8]): No inhibition and N.I. | Biofilm inhibition (%) P. batsensis (P. batsensis [9]): 41.4 ± 0.9% | Growth inhibition (%) P. batsensis (P. batsensis [10]): 44.8 ± 6.3 %

Oc1ccccc1 [Phenol, reference compound]
Inhibition (%) A. fischeri (bioluminescence) (Aliivibrio fischeri): 19.8%

[Cu] [compound 8, copper]
Daphnia magna 48 h LC50 (Daphnia magna [11]): 0.030 µg/mL | Alga Scenedesmus quadricauda 21 days NOEC [12]: 0.18 mg/L | Fish Orcorhynchus mykiss 96 h LC50 (Fish Orcorhynchus mykiss): 0.48 µg/mL | Daphnia magna 21 days NOEC (Daphnia magna [13]; in vivo): 0.015 mg/L | ATE category (Oral rat): 3 (category 3, 50 < ATE ≤300 mg/kg, labeled as (“Toxic if swallowed”)) | Oral rat/rabit LD50 (Oral rat/rabit): 140 mg/kg

[As] [compound 9, arsenic]
Daphnia magna 48 h LC50 (Daphnia magna [11]): 2.5 µg/mL | Alga Scenedesmus quadricauda 21 days NOEC ([12]; footnote d as printed, ref Tišler and Zagorc-končan, 2003): 34.5 mg/L | Fish Orcorhynchus mykiss 96 h LC50 (Fish Orcorhynchus mykiss): 15.3 µg/mL | Daphnia magna 21 days NOEC (Daphnia magna [13]; ref Tišler and Zagorc-končan, 2003): 1.85 mg/L | ATE category (Oral rat): 2 (category 2, 5 < ATE ≤50 mg/kg, also classified as “Fatal if swallowed”) | Oral rat/rabit LD50 (Oral rat/rabit): 12 mg/kg

ivermectin
EC50 (M. edulis): 0.4 µg/mL
